{"source": "patent US20110143993A1", "about": "“ENDOTHELIAL BASEMENT MEMBRANE TARGETING PEPTIDE LIGANDS” (The Brigham and Women's Hospital, Inc., priority 2009, published 2011)", "key": {"[1]": {"assay": "Pharmacokinetic studies with 14C-paclitaxel or 3H-PLGA", "design": "species or system Sprague Dawley rats", "conditions": "male, Sprague Dawley, rat, in vivo", "protocol": "12 male Sprague Dawley rats weighing approximately 250 g with bilateral jugular catheters were obtained from Charles River Laboratories (Wilmington, Mass.). […] 200-500 μL of blood was collected via the right catheter at 1, 3, 6, 9 and 24 h after injection (n=6). In a separate study to assess targeted lipid-polymeric nanoparticle polymer levels in circulation, 400 μl, of NPs synthesized with ^3H-PLGA was injected in saline (100 μCi/mL) and 100 μL of blood was collected at 1, 3, 6, 9, 24, 48, 96 and 120 h after injection (n=6). Blood radioactivity was quantified as disintegrations per minute (DPM) using the PerkinElmer Tri-Carb 2810TR liquid scintillation analyzer.\nBlood and tissue samples were processed as described by Chan J M, et al. Methods Mol. Biol. 2010; 624:163-175, with modifications. Solvable tissue solubilizer and Hionic-Fluor scintillation cocktail were purchased from PerkinElmer (Waltham, Mass.). All samples were weighed before processing. To prepare blood samples for radioisotope counting, 1.5 mL of tissue solubilizer was added to ≦0.5 mL blood and incubated at 55-60° C. for 2 h to dissolve the blood samples. Next, 50 μL of 0.5 mol/L EDTA-di-sodium salt solution was added to reduce foaming and 0.5 mL of hydrogen peroxide (300 g/L) was added dropwise with gentle agitation. Samples were further incubated at 55-60° C. for 1 h. To prepare tissue samples for radioisotope counting, kidney, spleen, liver, heart, and lung tissues (≦150 mg) were similarly processed, except with 4.0 mL of tissue solubilizer instead. Finally, 16 mL of Hionic-Fluor scintillation cocktail was added to both blood and tissue samples, and samples were subjected to temperature and light-adaptation for 1 h before counting. Sample radioactivity was read as disintegrations per minute (DPM) of either ^14C or ^3H radioisotopes using the PerkinElmer Tri-Carb 2810TR liquid scintillation analyzer, and standardized as DPM per gram of tissue or blood (DPM/g) based on the weight of the sample. […]"}, "in vivo": {"assay": "in vivo", "conditions": "male, Swiss albino, mouse, in vivo, iv", "protocol": "(§1) Clinical monitoring over seven days was carried out for any signs of adverse effects.\n(§2) At the end of the study, animals were sacrificed by CO2 inhalation. Gross necropsy was performed and H&E sections of the major organs (liver, lung, heart, spleen, kidney, nerves) were examined for any signs of toxicity."}, "Swiss albino mice": {"system": "Swiss albino mice", "assay": "in vivo", "protocol": "as §1, §2"}, "Matrigel [2]": {"system": "Matrigel", "assay": "Phage clone binding to Matrigel (anti-M13 ELISA, ABTS absorbance)", "conditions": "ABTS absorbance 405 nm vs 490 nm, 10^10 p.f.u. per clone", "protocol": "96-well plates were coated with 100 μL 1/50 dilutions of Matrigel in TBS overnight at 4° C., or TBS buffer only. Plates were blocked with 3% BSA/TBS for 2 h at RT and washed three times. 10^10 p.f.u. of each phage clone was added in 0.5% TBST in triplicate to either Matrigel or BSA-coated wells. Bound phage particles were detected with peroxidase-conjugated mouse anti-M13 monoclonal antibodies at 1/5000 dilution (Amersham Pharmacia Biotech, Piscataway, N.J.). After a 1 h incubation, the reaction was developed with 2,2′-azino-bis(3-ethylbenzthiazoline-6-sulphonic acid) (ABTS) (Amersham) and the absorbance was read at 405 nm against a reference wavelength of 490 nm with a SpectraMax Plus 384 Microplate reader (Molecular Devices, Sunnyvale, Calif.)."}, "Matrigel [3]": {"molecular_target": "Matrigel", "assay": "Sequence-specific competition binding of phage clones against synthetic peptide equivalents", "conditions": "synthetic peptide vs cognate phage on Matrigel, n=3", "protocol": "Matrigel-coated and blocked 96-well plates were incubated in triplicate with 10^−5-10^−10 M peptide concentrations and 10^9 pfu of phage in 100 μL 0.5% TEST. After 1 h at RT, bound phages were labeled with anti-M13 mAb and color was developed and detected using ABTS absorbance (405-490 nm). Peptide inhibition curves were normalized on a percentage scale to provide an estimate of the IC50, which was calculated using a dose-response curve fit using the Origin 8 data analysis software (Northampton, Mass.) by the formula:\nY=Bottom+(Top−Bottom)/(1+10̂((Log IC50−X)*HillSlope))."}, "Matrigel [4]": {"system": "Matrigel", "assay": "Phage titer count analysis on Matrigel", "format": "binding", "conditions": "phage input 10^12/mL p.f.u., n=3", "excerpt": "(§3) In a sequence-specific competition assay, the context-dependence of the phage towards the peptide-collagen IV binding interaction was investigated. […] The binding of phage C-11 was investigated in three independent titer count analyses. Phage titers of C-11 were compared against the library (R0) for binding to Matrigel and collagen IV with an initial phage input of 10^12/mL plaque forming units (p.f.u.)."}, "collagen IV": {"system": "collagen IV", "assay": "Phage titer count analysis on collagen IV", "format": "binding, human", "conditions": "phage input 10^12/mL p.f.u., n=3", "excerpt": "as §3"}, "[5]": {"conditions": "168 h after single i.v. dose, paclitaxel 10 mg/kg, targeted nanoparticles 35 mg/kg, mean ± SD n=6"}}}
{"compound": "CC(=O)O[C@H]1C(=O)[C@@]2(C)[C@H]([C@H](OC(=O)c3ccccc3)[C@]3(O)C[C@H](OC(=O)[C@H](O)[C@@H](NC(=O)c4ccccc4)c4ccccc4)C(C)=C1C3(C)C)[C@]1(OC(C)=O)CO[C@@H]1C[C@@H]2O", "note": "[paclitaxel]", "values": [{"measurement": "time after which levels in circulation could not be further detected", "setting": "[1]", "value": 24, "unit": "h"}, {"measurement": "t1/2α (h), half-life of distribution phase", "setting": "[1]; iv", "value": 0.64, "unit": "h"}, {"measurement": "t1/2β (h), half-life of elimination phase", "setting": "[1]; iv", "value": 8.02, "unit": "h"}, {"measurement": "MTD", "setting": "in vivo", "value": 10, "unit": "mg/kg"}, {"measurement": "hematological finding at day 7", "setting": "Swiss albino mice; 10 mg/kg, platelet count<400×10^9/L in two mice", "value": "signs of mild thrombocytopenia"}, {"measurement": "lethality", "setting": "Swiss albino mice; 15 mg/kg dose, 1.2 mg/mL, mice i.v.", "value": "immediate death of two mice"}, {"measurement": "ALP, alkaline phosphatase", "setting": "Swiss albino mice; [5]", "value": "41.7 ± 1.77", "unit": "U/L"}, {"measurement": "Baso, basophils", "setting": "Swiss albino mice; [5]", "value": "0.140 ± 0.078", "unit": "%"}, {"measurement": "Eo, eosinophils", "setting": "Swiss albino mice; [5]", "value": "0.0023 ± 0.004", "unit": "%"}, {"measurement": "HGB, hemoglobin", "setting": "Swiss albino mice; [5]", "value": "8.81 ± 0.49", "unit": "mmol/L"}, {"measurement": "LYMPH, lymphocytes", "setting": "Swiss albino mice; [5]", "value": "0.69 ± 0.13", "unit": "%"}, {"measurement": "MCH, mean cell hemoglobin", "setting": "Swiss albino mice; [5]", "value": "17.1 ± 0.679", "unit": "pg"}, {"measurement": "MCHC", "setting": "Swiss albino mice; [5]", "value": "17.9 ± 0.47", "unit": "mmol/L"}, {"measurement": "MCV, mean cell volume", "setting": "Swiss albino mice; [5]", "value": "59.5 ± 1.55", "unit": "fL"}, {"measurement": "Mono, monocytes", "setting": "Swiss albino mice; [5]", "value": "0.167 ± 0.064", "unit": "%"}, {"measurement": "NEUT, neutrophils", "setting": "Swiss albino mice; [5]", "value": "0.002 ± 0.002", "unit": "%"}, {"measurement": "PLT, platelets", "setting": "Swiss albino mice; [5]", "value": "1026 ± 533 ×10^9/L"}, {"measurement": "RBC, red blood cells", "setting": "Swiss albino mice; [5]", "value": "8.30 ± 0.598 ×10^12/L"}, {"measurement": "WBC, white blood cells", "setting": "Swiss albino mice; [5]", "value": "2.05 ± 0.454 ×10^9/L"}, {"measurement": "ALT, alanine aminotransferase", "setting": "Swiss albino mice; mouse, in vivo", "value": "61.01 ± 6.10", "unit": "U/L"}, {"measurement": "AST, aspartate aminotransferase", "setting": "Swiss albino mice; mouse, in vivo", "value": "119.83 ± 8.23", "unit": "U/L"}]}
{"compound": "KIFVWPY [Clone A-9, heptapeptide from phage display against collagen IV; phage clone and synthetic peptide equivalent]", "values": [{"measurement": "binding to Matrigel compared with the random library (R0)", "setting": "Matrigel [2]", "value": "best candidates"}, {"measurement": "IC50", "setting": "Matrigel [3]", "value": 551, "unit": "nM"}]}
{"compound": "KIWKLPQ [Clone C-10, heptapeptide from phage display against collagen IV; phage clone and synthetic peptide equivalent]", "values": [{"measurement": "binding to Matrigel compared with the random library (R0)", "setting": "Matrigel [2]", "value": "best candidates"}, {"measurement": "IC50", "setting": "Matrigel [3]", "value": 917, "unit": "nM"}]}
{"compound": "KLWVLPK [Clone C-11, heptapeptide from phage display against collagen IV; phage clone and synthetic peptide equivalent]", "values": [{"measurement": "binding to Matrigel compared with the random library (R0)", "setting": "Matrigel [2]", "value": "best candidates"}, {"measurement": "IC50", "setting": "Matrigel [3]", "value": 117, "unit": "nM"}, {"measurement": "Matrigel binding compared to the library (phage titer)", "setting": "Matrigel [4]", "value": "approximately 300 fold"}, {"measurement": "collagen IV binding compared to the library (phage titer)", "setting": "collagen IV", "value": "approximately 900 fold"}]}
{"compound": "KVWSLPQ [Clone A-8, heptapeptide from phage display against collagen IV; phage clone and synthetic peptide equivalent]", "values": [{"measurement": "binding to Matrigel compared with the random library (R0)", "setting": "Matrigel [2]", "value": "best candidates"}, {"measurement": "IC50", "setting": "Matrigel [3]", "value": 1200, "unit": "nM"}]}
